Reference: ChEMBL document CHEMBL4265869, “Prodrugs of triterpenoids and their derivatives” (Eur J Med Chem, 2017)

Columns and labels:
A549 [1] = test: Cytotoxicity in human A549 cells; format: functional, cell-based
[2] = Selectivity index, ratio of EC50 for mouse NIH/3T3 cells to EC50 for human A549 cells; format: toxicity; settings: NIH/3T3 cells and A549 cells, read-out: Ratio EC50
A549 [3] = test: Cytotoxicity in human A549 cells by photometric SRB assay; format: functional, cell-based
MCF7 = test: Cytotoxicity in human MCF7 cells by photometric SRB assay; format: functional, cell-based
518A2 = test: Cytotoxicity in human 518A2 cells by photometric SRB assay; format: functional, cell-based
SW-1736 = test: Cytotoxicity in human SW1736 cells by photometric SRB assay; format: functional, cell-based
FaDu = test: Cytotoxicity in human FADU cells by photometric SRB assay; format: functional, cell-based
HT-29 = test: Cytotoxicity in human HT-29 cells by photometric SRB assay; format: functional, cell-based

C/C=C(\C)C(=O)O[C@@H]1CC(C)(C)C[C@H]2C3=CC[C@@H]4[C@@]5(C)CC[C@H](OC(=O)Cc6ccccc6Cc6c(Cl)cccc6Cl)C(C)(C)[C@@H]5CC[C@@]4(C)[C@]3(C)CCC12C(=O)O (single isomer, unassigned)
IC50 (A549 [1]): 0.15 µM

COC(=O)[C@]12CCC(C)(C)C[C@H]1C1=CC(=O)[C@@H]3[C@@]4(C)CC[C@H](OS(N)(=O)=O)C(C)(C)[C@@H]4CC[C@@]3(C)[C@]1(C)CC2
selectivity ratio [2]: 2.7

CC(C)=CC(=O)O[C@@H]1CC(C)(C)C[C@H]2C3=CC[C@@H]4[C@@]5(C)CC[C@H](OC(=O)Cc6ccccc6Cc6c(Cl)cccc6Cl)C(C)(C)[C@@H]5CC[C@@]4(C)[C@]3(C)CCC12C(=O)O (single isomer, unassigned)
IC50 (A549 [1]): 0.42 µM

COC(=O)[C@]12CCC(C)(C)C[C@H]1C1=CC[C@@H]3[C@@]4(C)C[C@@H](O)[C@H](OS(N)(=O)=O)C(C)(C)[C@@H]4CC[C@@]3(C)[C@]1(C)CC2
EC50 (A549 [3]): 2.2 to 3.5 µM
EC50 (MCF7): 2.2 to 3.5 µM
EC50 (518A2): 2.2 to 3.5 µM
EC50 (SW-1736): 2.2 to 3.5 µM
EC50 (FaDu): 2.2 to 3.5 µM
EC50 (HT-29): 2.2 to 3.5 µM

C/C=C(\C)C(=O)O[C@@H]1CC(C)(C)C[C@H]2C3=CC[C@@H]4[C@@]5(C)CC[C@H](Oc6ccccc6C(C)=O)C(C)(C)[C@@H]5CC[C@@]4(C)[C@]3(C)CCC12C(=O)O (single isomer, unassigned)
IC50 (A549 [1]): 0.77 µM
